Laboratory results from ChEMBL document CHEMBL1127329, “6-(1H-imidazol-1-yl)-7-nitro-2,3(1H,4H)-quinoxalinedione hydrochloride (YM90K) and related compounds: structure-activity relationships for the AMPA-type non-NMDA receptor” (J Med Chem, 1994).

What was measured:
[1] = biological target: Glutamate receptor ionotropic, AMPA (Rattus norvegicus, UniProt P19490+P19491+P19492+P19493)
Description: Binding affinity against AMPA receptor in rat brain membrane using [3H]-AMPA as radioligand

[2] = biological target: T1, Glutamate receptor ionotropic, AMPA (Rattus norvegicus) (UniProt P19491+P19492+P19493+P19490); assay: Ability to inhibit [3H]AMPA binding to AMPA receptor in rat whole brain at 1 uM concentration
[3] = biological target: T1, Glutamate receptor ionotropic, AMPA (Rattus norvegicus); assay: Ability to inhibit [3H]AMPA binding to AMPA receptor in rat whole brain at 100 uM concentration; type: tissue-based
Glutamate NMDA receptor [4] = assay: Binding affinity of compound against NMDA receptor binding site in rat brain membrane using [3H]glutamate as radioligand; type: cell membranes
Glutamate NMDA receptor [5] = assay: Binding affinity of compound against strychnine-insensitive glycine site on NMDA receptor in rat brain membrane using [3H]glycine as radioligand; type: cell membranes
[6] = biological target: Glutamate receptor ionotropic, kainate; assay: Binding affinity against kainate receptor in rat brain membrane using [3H]kainate as radioligand; type: cell membranes

Row | Structure (SMILES) | Ki [1] | also measured
1 | Oc1nc2cc(-n3ccnc3)c(C(F)(F)F)cc2nc1O | 200 nM | 
2 | Oc1nc2cc(F)c(-n3ccnc3)cc2nc1O |  | inhibition [2]: 14%
3 | Oc1nc2ccccc2nc1O |  | inhibition [3]: 24%
4 | O=[N+]([O-])c1cc2nc(O)c(O)nc2cc1-n1cnc(-c2ccccc2)c1 | 230 nM | 
5 | O=[N+]([O-])c1cc2nc(O)c(O)nc2cc1-n1cncn1 | 240 nM | 
6 | Cc1cn(-c2cc3nc(O)c(O)nc3cc2[N+](=O)[O-])cn1 | 180 nM | 
7 | O=[N+]([O-])c1cc2nc(O)c(O)nc2cc1-n1cnc2c1CCCC2 | 4800 nM | 
8 | O=[N+]([O-])c1ccc2nc(O)c(O)nc2c1 | 2000 nM | 
9 | O=[N+]([O-])c1cc(-n2ccnc2)cc2nc(O)c(O)nc12 | 1900 nM | 
10 | O=[N+]([O-])c1cc2nc(O)c(O)nc2cc1-c1c[nH]cn1 | 690 nM | 
11 | N#Cc1ccc2nc(O)c(O)nc2c1 | 5000 nM | 
12 | NS(=O)(=O)c1cccc2c1c([N+](=O)[O-])cc1nc(O)c(O)nc12 [NBQX] |  | Ki (Glutamate NMDA receptor [4]): > 100000 nM; Ki (Glutamate NMDA receptor [5]): > 100000 nM
13 | Cc1ccc2nc(O)c(O)nc2c1 |  | inhibition [3]: 28%
14 | O=[N+]([O-])c1cc2nc(O)c(O)nc2cc1-n1cccn1 | 1400 nM | 
15 | Nc1cc2nc(O)c(O)nc2cc1-n1ccnc1 |  | inhibition [2]: 16%
16 | Oc1nc2cc(-n3ccnc3)c(-n3ccnc3)cc2nc1O | 820 nM | 
17 | CCc1nccn1-c1cc2nc(O)c(O)nc2cc1[N+](=O)[O-] | 390 nM | 
18 | Cc1cc2nc(O)c(O)nc2cc1-n1ccnc1 |  | inhibition [2]: 14%
19 | Oc1nc2ccc(-n3ccnc3)cc2nc1O | 1600 nM | 
20 | Oc1nc2ccc(-n3ccnc3)c(C(F)(F)F)c2nc1O |  | inhibition [2]: 10%
21 | Cc1nccn1-c1cc2nc(O)c(O)nc2cc1[N+](=O)[O-] | 430 nM | 
22 | O=[N+]([O-])c1cc2nc(O)c(O)nc2cc1-c1cccnc1 | 620 nM | 
23 | O=[N+]([O-])c1cc2nc(O)c(O)nc2cc1-n1cnc2ccccc21 | 1300 nM | 
24 | O=c1[nH]c2cc(-n3ccnc3)c([N+](=O)[O-])cc2[nH]c1=O [YM-90K] | 84 nM | Ki [6]: 2200 nM; Ki (Glutamate NMDA receptor [4]): > 100000 nM; Ki (Glutamate NMDA receptor [5]): 37000 nM
25 | N#Cc1cc2nc(O)c(O)nc2cc1-n1ccnc1 | 200 nM | 
26 | N#Cc1cc2c(cc1[N+](=O)[O-])=NC(=O)C(=O)N=2 |  | Ki [6]: 1800 nM; Ki (Glutamate NMDA receptor [4]): 25000 nM; Ki (Glutamate NMDA receptor [5]): 5600 nM
27 | O=[N+]([O-])c1cn(-c2cc3nc(O)c(O)nc3cc2[N+](=O)[O-])cn1 | 100 nM | 
28 | CC(=O)c1cc2nc(O)c(O)nc2cc1-n1ccnc1 |  | inhibition [2]: 36%
